These results are taken from patent publication US20220033431A1, “Cyclic Di-Nucleotide Compounds as STING Agonists” (Merck Sharp & Dohme Corp., priority 2018, published 2022).

As a reminder, the EC50 is the concentration that produces a half-maximal response. Low values mean a more potent agent, high ones a less potent agent.

Assay [1] concerns THP1 cells. Briefly: IFN-β secretion in THP1 cell culture (5 h). The format is cell-based, human. Conditions: 30 uM cGAMP = 100%; for activation at 30 µM: Homo sapiens, THP-1, 5 h. As to the method: The ability of compounds to stimulate the secretion of interferon-beta from THP1 cells was measured using a human IFN-β AlphaLISA kit (Perkin Elmer, Cat. No. AL265F). The basic protocol is as follows:
A Labcyte Echo 550 acoustic dispenser was used to transfer 120 nL of compound dissolved in DMSO into the wells of an empty, sterile 384-well microplate, (Corning, Cat. No. 3712). THP1 cells (American Type Culture Collection, Cat. No. TIB202) previously frozen in Recovery Medium (Life Technologies, Cat. No. 12648-010) were thawed and immediately diluted 10-fold into 37° C. assay medium (RPMI 1640+L-Glutamine & phenol red, Life Technologies, Cat. No. 11875-085; 0.5% heat inactivated fetal bovine serum, Sigma Aldrich, Cat. No. F4135; 1 mM Sodium Pyruvate, Life Technologies, Cat. No. 11360-070; lx non essential amino acids; Life Technologies, Cat. No. 11140-050). The cell viability and count was ascertained using a Beckman Coulter V-Cell XR cell counter. The cell suspension was centrifuged at 200×g for 5 min at RT. Cells were resuspended to a density of 0.8×10^6/mL in 37° C. assay medium. Subsequent liquid transfers were performed using either a Matrix electronic multichannel pipette or an Agilent Bravo Automated Liquid Handling Platform.
The assay was started by dispensing 40 μL of the previously prepared cell suspension into the wells of the plate containing compounds. After 5 h incubation at 37° C., 5% CO2 in a humidified atmosphere, the plate of cells and compounds was centrifuged at 200×g for 5 min at RT. From each well, […] of supernatant was transferred into corresponding wells of a white 384-well plate (Perkin Elmer, Cat. No. 6005620). To these supernatant-containing wells was added 10 μL of 5× Anti-Analyte Acceptor beads (50 μg/mL of AlphaLISA HiBlock Buffer) and incubated for 30 min at RT while shaking on an orbital plate shaker. To each well was added 10 μL of 5× Biotinylated Antibody Anti-analyte (5 nM in AlphaLISA HiBlock Buffer) and incubated on an orbital plate shaker for 60 min at RT or overnight at 4° C. To each well was added 25 μL of 2× SA-Donor beads ([…] in AlphaLISA HiBlock Buffer) and incubated for 30-45 min at RT in the dark while shaking on an orbital plate shaker. The plate was then read on a Perkin Elmer Envision (λex=680 nm, λem=[…]). The percent effect of the AlphaLISA signal at each compound concentration was calculated based on 30 uM cGAMP positive controls and 0.3% DMSO negative controls. The plot of percent effect versus the log of compound concentration was fit with a 4-parameter concentration response equation to calculate EC50 values. The test compounds were tested at concentrations 30000, 10000, 3333, 1111, 370.4, 123.4, 41.2, 13.7, 4.6, and 1.5 nM with 0.3% residual DMSO. The control compound, cGAMP was tested at concentrations 100000, 33333, 11111, 3704, 1235, 412, 137, 46, and 15 nM with 0.3% residual DMSO.
Compounds of the disclosure were evaluated for IFN-β secretion in THP1 cell culture as described above. The following table tabulates the biological data for these compounds as percent activation relative to 2′3′-cGAMP at the 30 μM concentration.

For assay [2], the target named is T1, full-length HAQ STING (Homo sapiens, UniProt Q86WV6, G230A/H232R/R293Q/R71H).
T1 construct: Full-Length HAQ STING [STING(1-379)R71H, G230A, H232R,; made in house; host or cells: Trichoplusia ni insect cells (baculovirus made in Sf21); membrane preparation
T1 sequence (Q86WV6 with tags, fused parts or gaps R71H/G230A/H232R/R293Q): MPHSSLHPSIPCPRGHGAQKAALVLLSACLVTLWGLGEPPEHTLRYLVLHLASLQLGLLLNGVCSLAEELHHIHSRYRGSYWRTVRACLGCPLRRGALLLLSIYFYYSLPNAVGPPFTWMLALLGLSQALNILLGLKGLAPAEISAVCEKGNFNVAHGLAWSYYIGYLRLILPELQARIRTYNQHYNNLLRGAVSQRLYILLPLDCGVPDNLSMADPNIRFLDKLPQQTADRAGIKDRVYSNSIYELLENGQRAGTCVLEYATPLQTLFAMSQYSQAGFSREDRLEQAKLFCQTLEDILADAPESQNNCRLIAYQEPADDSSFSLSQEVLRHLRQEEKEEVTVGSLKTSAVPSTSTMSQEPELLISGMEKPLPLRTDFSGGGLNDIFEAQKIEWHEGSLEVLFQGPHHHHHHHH
Briefly: 3H-cGAMP filtration binding assay (HAQ STING). Conditions: 3H-cGAMP filtration binding assay for HAQ STING; competition with tritiated cGAMP. The text has this: The ability of compounds to bind STING is quantified by their ability to compete with tritiated cGAMP ligand for human STING receptor membrane using a radioactive filter-binding assay. The binding assay employs STING receptor obtained from Trichoplusia ni cell membranes (T.ni; Expression Systems, cat #94-002F, www.expressionsystems.com) overexpressing full-length HAQ STING and tritiated cGAMP ligand.
The basic HAQ STING filtration assay protocol is as follows:
Compound and membrane then preincubated for 60 min at RT to allow compound binding to equilibrate. Following equilibration, 8 nM of [^3H]c-GAMP ligand was prepared by diluting into assay buffer, and 50 uL of this working stock was then manually added to each well of the assay plate. […] The filter plates were then dried at 55° C. for 30 min using a pressurized oven before 30 uL of ULTIMA GOLD F scintillate was added to each well. Tritium levels for each reaction well were then measured using a PerkinElmer TopCount plate reader.
After normalization to controls, the percent activity for each compound concentration was calculated by measuring the amount of remaining radioactivity. The plot of percent activity versus the log of compound concentration was fit with a 4-parameter dose response equation to calculate EC50 values.

Where [3] appears, read: IFN-β secretion, THP1 cells, 5 h, 30 μM, read-out: % Effect at 30 μM relative to 2′3′-cGAMP.
The mark [4] stands for this setting: IFN-β secretion, THP1 cells, 5 h, 30 μM.

Where two headings read alike, the source gives them in different places.

As to `Nc1nc2c(nnn2[C@@H]2O[C@@H]3COP(=O)(S)O[C@H]4C[C@H](n5ccc6c(N)ncnc65)O[C@@H]4COP(=O)(S)O[C@H]2C3)c(=O)[nH]1` (single isomer, unassigned) [Example 22], the activation at 30 µM in assay [1] (setting [3]) turned out to be 69%.

Turning to `Nc1nc2c(ncn2[C@@H]2O[C@@H]3COP(=O)(S)O[C@H]4[C@H](F)[C@H](n5nnc6c(N)ncnc65)O[C@@H]4COP(=O)(S)O[C@H]2[C@@H]3O)c(=O)[nH]1` (single isomer, unassigned) [Example 1], the “% Effect at 30 μM relative to 2′3′-cGAMP” value in assay [1] (setting [4]) was 24%. Besides, the EC50 in assay [2] came to 1.14 µM.

On to `Nc1nc2c(ncn2[C@@H]2O[C@@H]3COP(=O)(S)O[C@H]4[C@H](F)[C@H](n5cnc6c(N)ncnc65)O[C@@H]4COP(=O)(S)O[C@H]2[C@@H]3F)c(=O)[nH]1` (single isomer, unassigned) [Example 16], for which the “% Effect at 30 μM relative to 2′3′-cGAMP” value in assay [1] (setting [4]) was 188%.

Turning to `Nc1nc2c(ncn2[C@@H]2O[C@@H]3COP(=O)(S)O[C@H]4[C@H](F)[C@H](n5nnc6c(N)ncnc65)O[C@@H]4COP(=O)(S)O[C@H]2[C@@H]3O)c(=O)[nH]1` (single isomer, unassigned) [Example 2], in assay [1] (setting [4]), the “% Effect at 30 μM relative to 2′3′-cGAMP” value worked out at 29%. In assay [2], the EC50 is 1.13 µM.

In the case of `Nc1nc2c(ncn2[C@@H]2O[C@@H]3COP(=O)(O)O[C@H]4[C@H](F)[C@H](n5cnc6c(N)ncnc65)O[C@@H]4COP(=O)(S)O[C@H]2[C@@H]3F)c(=O)[nH]1` (single isomer, unassigned) [Example 13], the “% Effect at 30 μM relative to 2′3′-cGAMP” value in assay [1] (setting [4]) is recorded as 79%.

For the compound `Nc1nc2c(ncn2[C@@H]2O[C@@H]3COP(=O)(S)O[C@H]4[C@H]5OC[C@]4(COP(=O)(S)O[C@H]2[C@@H]3O)O[C@H]5n2cnc3c(N)ncnc32)c(=O)[nH]1` (single isomer, unassigned) [Example 4], the “% Effect at 30 μM relative to 2′3′-cGAMP” value in assay [1] (setting [4]) worked out at 113%.

Regarding `Nc1nc2c(ncn2[C@@H]2O[C@@H]3COP(=O)(S)O[C@H]4[C@H](F)[C@H](n5cnc6c(N)ncnc65)O[C@@H]4COP(=O)(S)O[C@H]2[C@@H]3F)c(=O)[nH]1` (single isomer, unassigned) [Example 17], the “% Effect at 30 μM relative to 2′3′-cGAMP” value in assay [1] (setting [4]) is listed as 141%.

With `Nc1nc2c(ncn2[C@@H]2O[C@@H]3COP(=O)(S)O[C@H]4[C@H](F)[C@H](n5nnc6c(N)ncnc65)O[C@@H]4COP(=O)(S)O[C@H]2C3)c(=O)[nH]1` (single isomer, unassigned) [Example 8], in assay [1] (setting [4]), the “% Effect at 30 μM relative to 2′3′-cGAMP” value is recorded as 145%. In addition, in assay [2], the EC50 is 0.026 µM.

In the case of `Nc1nc2c(ncn2[C@@H]2O[C@@H]3COP(=O)(S)O[C@H]4[C@H](F)[C@H](n5nnc6c(N)ncnc65)O[C@@H]4COP(=O)(S)O[C@H]2C3)c(=O)[nH]1` (single isomer, unassigned) [Example 6], in assay [1] (setting [4]), the “% Effect at 30 μM relative to 2′3′-cGAMP” value came out at 60%. The compound further registered a concentration giving a half-maximal response (EC50) in assay [2] of 0.241 µM.

Turning to `Nc1nc2c(nnn2[C@@H]2O[C@@H]3COP(=O)(S)O[C@H]4C[C@H](n5ccc6c(N)ncnc65)O[C@@H]4COP(=O)(S)O[C@H]2[C@@H]3F)c(=O)[nH]1` (single isomer, unassigned) [Example 25], the activation at 30 µM in assay [1] (setting [3]) was 92%. In addition, the concentration giving a half-maximal response (EC50) in assay [2] is 0.0999 µM.

Consider `Nc1nc2c(nnn2[C@@H]2O[C@@H]3COP(=O)(S)O[C@H]4C[C@H](n5ccc6c(N)ncnc65)O[C@@H]4COP(=O)(S)O[C@H]2[C@@H]3F)c(=O)[nH]1` (single isomer, unassigned) [Example 26], for which, in assay [1] (setting [4]), the “% Effect at 30 μM relative to 2′3′-cGAMP” value was 79%. The EC50 in assay [2] was determined as 0.00562 µM.

Turning to `Nc1nc2c(ncn2[C@@H]2O[C@@H]3COP(=O)(S)O[C@H]4[C@H](F)[C@H](n5nnc6c(N)ncnc65)O[C@@H]4COP(=O)(S)O[C@H]2C3)c(=O)[nH]1` (single isomer, unassigned) [Example 7], the “% Effect at 30 μM relative to 2′3′-cGAMP” value in assay [1] (setting [4]) is on record as 15%. The compound also registered an EC50 in assay [2] of 3.67 µM.

`Nc1nc2c(nnn2[C@@H]2O[C@@H]3COP(=O)(S)O[C@H]4[C@H](F)[C@H](n5nnc6c(N)ncnc65)O[C@@H]4COP(=O)(S)O[C@H]2[C@@H]3F)c(=O)[nH]1` (stereo partly drawn) [Example 24, 5-amino-3-[(5R,7R,8R,12aR,14R,15S,15aR,16R)-14-(7-amino-3H-[1,2,3]triazolo[4,5-d]pyrimidin-3-yl)-15,16-difluoro-2,10-dioxido-2,10-disulfanyloctahydro-12H-5,8-methanofuro[3,2-1][1,3,6,9,11,2,10]pentaoxadiphosphacyclotetradecin-7-yl]-3,6-dihydro-7H-[1,2,3]triazolo[4,5-d]pyrimidin-7-one]: the activation at 30 µM in assay [1] (read-out: % Effect at 30 μM relative to 2′3′-cGAMP, IFN-β secretion, THP1 cells, 5 h, 30 μM) is 129%.

Regarding `Nc1nc2c(ncn2[C@@H]2O[C@@H]3COP(=O)(O)O[C@H]4[C@H](F)[C@H](n5cnc6c(N)ncnc65)O[C@@H]4COP(=O)(S)O[C@H]2[C@@H]3F)c(=O)[nH]1` (single isomer, unassigned) [Example 14], the “% Effect at 30 μM relative to 2′3′-cGAMP” value in assay [1] (setting [4]) is reported as 257%.

Consider `Nc1nc2c(ncn2[C@@H]2O[C@@H]3COP(=O)(S)O[C@H]4[C@H](F)[C@H](n5cnc6c(N)ncnc65)O[C@@H]4COP(=O)(S)O[C@H]2[C@@H]3F)c(=O)[nH]1` (single isomer, unassigned) [Example 15], for which the “% Effect at 30 μM relative to 2′3′-cGAMP” value in assay [1] (setting [4]) was found to be 31%.

With `Nc1nc2c(ncn2[C@@H]2O[C@@H]3COP(=O)(S)O[C@H]4[C@H](F)[C@H](n5nnc6c(N)ncnc65)O[C@@H]4COP(=O)(S)O[C@H]2[C@@H]3O)c(=O)[nH]1` (single isomer, unassigned) [Example 3], the “% Effect at 30 μM relative to 2′3′-cGAMP” value in assay [1] (setting [4]) was found to be 128%. In addition, the concentration for a half-maximal effect (EC50) in assay [2] stood at 0.0513 µM.

Take `Nc1nc2c(ncn2[C@@H]2O[C@@H]3COP(=O)(S)O[C@H]4[C@H]5OC[C@]4(COP(=O)(S)O[C@H]2[C@@H]3O)O[C@H]5n2cnc3c(N)ncnc32)c(=O)[nH]1` (single isomer, unassigned) [Example 5]: the activation at 30 µM in assay [1] (setting [3]) turned out to be 113%.
